{"source": "patent US8889699B2", "about": "“5-fluorouracil derivative” (Delta-Fly Pharma, Inc., priority 2009, dated 2014)", "key": {"[1]": {"tested_on": "human gastric cancer strain (SC-2)", "conditions": "14 days, day 15, Test Example 3", "experimental": "The resulting product was stirred with a stirrer at room temperature for about 10 minutes. […] Thereafter, ultrasonic treatment was performed under ice cooling for about 5 minutes, thereby obtaining a BOF-A2 drug liquid to be used at a dose of 14 mg/kg/day, 21 mg/kg/day, or 28 mg/kg/day. • (f) Experiment: The human gastric cancer strain (SC-2) was subcutaneously transplanted into the back of a BALB/cA-nu mouse and preliminarily proliferated therein. The proliferated strain was extracted, cut into about 2 mm square pieces with scissors in physiological saline, and subcutaneously inoculated to the right axillary region of mice of the same strain, 5 to 6 weeks of age, using a transplantation needle. […] Then, drug administration was initiated from the next day. Each of the test liquids shown in (a) to (e) above was administered orally to the mice in each of the test drug groups using a sonde for oral administration at a dose of 0.1 ml per 10 g body weight once a day for 14 continuous days. In the same manner as the above, the cancer-bearing mice in the control group were subjected to oral administration of only 0.5% HPMC liquid for 14 continuous days.\nThe tumor volume of each mouse in each group before the initiation of the treatment, on day 3, day 5, day 8 (1 week after), day 11, and day 15 (2 weeks after), i.e., after termination of the administration, was calculated using Equation 1 below, and respective relative tumor volume (RTV) relative to the tumor volume at the time of initiation of the treatment was calculated. In relation to the antitumor effect, the average value of the tumor proliferation inhibition ratio (IR; %) was calculated from the average tumor volume of each treatment group on day 15 (after termination of the treatment) relative to that of the control group on day 15, using Equation 2. […] Along therewith, a weight change ratio was calculated from the body weight of the mice at the time of the termination of the drug administration relative to the body weight of the mice at the time of the initiation of the administration, using Equation 3. […] Tumor volume(mm^3)=(major axis)×(minor axis)^2×½ Equation 1: Tumor proliferation inhibition ratio(IR, %)=[1−(average tumor volume of treatment group)/(average tumor volume of control group)]×100 Equation 2: Average weight change ratio(%)=[(average weight on Day 15)−(average weight on Day 1)]/(average weight on Day 1)×100 Equation 3: […]\nThe resulting product was stirred with a stirrer at room temperature for about 10 minutes. […] The proliferated strain was extracted, cut into about 2 mm square pieces with scissors in physiological saline, and subcutaneously inoculated to the right axillary region of mice of the same strain, 5 to 6 weeks of age, using a transplantation needle. […] Then, drug administration was initiated from the next day. Each of the test liquids shown in (a) to (c) above was administered orally to the mice in each of the test drug groups using a sonde for oral administration at a dose of 0.1 ml per 10 g body weight once a day for 14 continuous days. In the same manner as the above, the cancer-bearing mice in the control group were subjected to oral administration of only 0.5% HPMC liquid for 14 continuous days.\nThe tumor volume of each mouse in each group before the initiation of the treatment, on day 3, day 5, day 8 (1 week after), day 11, and day 15 (2 weeks after), i.e., after termination of the administration, was calculated using Equation 1 below, and respective relative tumor volume (RTV) relative to the tumor volume at the time of initiation of the treatment was calculated. In relation to the antitumor effect, the average value of the tumor proliferation inhibition ratio (IR; %) was calculated from the average tumor volume of each treatment group on day 15 (after termination of the treatment) relative to that of the control group on day 15, using Equation 2."}, "[2]": {"tested_on": "sarcoma 180 cells", "assay": "Inhibition of intracellular phosphorylation of 5-FU in cancer cells", "assay_type": "cell-based, mouse", "conditions": "for inhibition at 10 µM / inhibition at 100 µM: Mus musculus, Sarcoma-180, 0.5 h", "experimental": "(§1) • (a) Test liquid preparation 1: Compound I-2 or I-10 of the present invention was dissolved to a concentration of 1 mM in cold physiological saline. The resulting product was further diluted 10-fold with physiological saline, yielding a 100-μM solution. • (b) Test liquid preparation 2: As an OPRT inhibitor, which inhibits the phosphorylation of 5-FU, citrazinic acid (Citra.A.) was dissolved to a concentration of 1 mM in cold physiological saline, and further diluted 10-fold with physiological saline, yielding a 100-μM solution. • (c) Preparation of cancer cell suspension: Ascites-type sarcoma 180 cells were preliminarily transplanted intraperitoneally into an ICR mouse and proliferated therein for use in the test as raw (intact) cells. The proliferated cells were isolated and then washed with physiological saline. […] Immediately after the completion of the reaction, 4 mL of a cold Hanks solution was added to the reaction solution, and the cells were washed and separated by centrifugation. After this procedure was repeated twice, 2 mL of a cold 5% trichloroacetic acid (TCA) solution was added to the cell pellet to disrupt the cells, and 5-FU and its nucleotide metabolites were extracted. Subsequently, a portion of the nucleic acid extract was applied to a silica gel 60F254 plate and developed with a mixed liquid comprising chloroform-methanol-acetic acid (17:3:1) to isolate the nucleotide moiety. The radioactivity thereof was measured and the concentration of 5-FU phosphorylation was measured.\nas §1, with “1: Compounds I-9, I-11, I-12, and I-13” for “1: Compound I-2 or I-10”, “invention were separately” for “invention was”, “saline. Each of the” for “saline. The”, “resulting products” for “resulting product”, “acid” for “acid (Citra.A.)”"}, "[3]": {"conditions": "Conc. 10 μM, 30 min. Incubation, 5-FU 2 μM, Table 6"}, "[4]": {"conditions": "Conc. 100 μM, 30 min. Incubation, 5-FU 2 μM, Table 6"}, "[5]": {"conditions": "Conc. 10 μM, 30 min. Incubation, 5-FU 2 μM, Table 6, read-out: Inhibition (%) of phosphorylation of 5-FU"}, "[6]": {"conditions": "Conc. 100 μM, 30 min. Incubation, 5-FU 2 μM, Table 6, read-out: Inhibition (%) of phosphorylation of 5-FU"}, "[7]": {"conditions": "concentration of 10 μM, reaction for 30 minutes, read-out: percent inhibition of intracellular phosphorylation of 5-FU"}, "[8]": {"conditions": "concentration of 100 μM, reaction for 30 minutes, read-out: percent inhibition of intracellular phosphorylation of 5-FU"}}, "note": "Where two headings read alike, the source gives them in different places.", "data": [{"molecule": "CCOCn1cc(F)c(=O)n(C(=O)c2cccc(C(=O)Oc3nc(OC(=O)c4ccccc4)ccc3C#N)c2)c1=O", "note": "[BOF-A2, reference compound]", "values": [{"measurement": "Average weight change (%)", "setting": "[1]; 14 mg/kg/day oral", "value": 3.16, "unit": "%"}, {"measurement": "Tumor proliferation inhibition ratio (%)", "setting": "[1]; 14 mg/kg/day oral", "value": 51.0, "unit": "%"}, {"measurement": "Average weight change (%)", "setting": "[1]; 21 mg/kg/day oral", "value": "−7.48", "unit": "%"}, {"measurement": "Tumor proliferation inhibition ratio (%)", "setting": "[1]; 21 mg/kg/day oral", "value": 70.9, "unit": "%"}, {"measurement": "Average weight change (%)", "setting": "[1]; 28 mg/kg/day oral", "value": "−20.58", "unit": "%"}, {"measurement": "Tumor proliferation inhibition ratio (%)", "setting": "[1]; 28 mg/kg/day oral", "value": 72.4, "unit": "%"}]}, {"molecule": "CCOCn1cc(F)c(=O)n(C(=O)c2cccc(C(=O)Oc3cc(O)c(Cl)cn3)c2)c1=O", "note": "[Compound 8a, 3-{3-[4-hydroxy-5-chloro-2-pyridyloxycarbonyl]benzoyl}-1-ethoxymethyl-5-fluorouracil]", "values": [{"measurement": "Average weight change (%)", "setting": "[1]; 11.5 mg/kg/day oral", "value": 0.34, "unit": "%"}, {"measurement": "Tumor proliferation inhibition ratio (%)", "setting": "[1]; 11.5 mg/kg/day oral", "value": 52.8, "unit": "%"}, {"measurement": "Average weight change (%)", "setting": "[1]; 17.3 mg/kg/day oral", "value": 2.32, "unit": "%"}, {"measurement": "Tumor proliferation inhibition ratio (%)", "setting": "[1]; 17.3 mg/kg/day oral", "value": 58.1, "unit": "%"}, {"measurement": "Average weight change (%)", "setting": "[1]; 23.0 mg/kg/day oral", "value": "−18.11", "unit": "%"}, {"measurement": "Tumor proliferation inhibition ratio (%)", "setting": "[1]; 23.0 mg/kg/day oral", "value": 77.7, "unit": "%"}]}, {"molecule": "CCOCn1cc(F)c(=O)n(C(=O)c2cccc(C(=O)Oc3cc(OC(=O)c4cc(OC(=O)C(C)(C)C)nc(OC(=O)C(C)(C)C)c4)c(Cl)cn3)c2)c1=O", "note": "[Compound I-12, 3-{3-[4-(2,6-dipivaloyloxyisonicotinoyloxy)-5-chloro-2-pyridyloxycarbonyl]benzoyl}-1-ethoxymethyl-5-fluorouracil]", "values": [{"measurement": "RNA Fraction", "setting": "[2]; [3]", "value": 28.15, "unit": "pmol/1 × 10^7 cells"}, {"measurement": "RNA Fraction", "setting": "[2]; [4]", "value": 25.48, "unit": "pmol/1 × 10^7 cells"}, {"measurement": "inhibition at 10 µM", "setting": "[2]; [5]", "value": 55.5, "unit": "%"}, {"measurement": "inhibition at 100 µM", "setting": "[2]; [6]", "value": 59.8, "unit": "%"}, {"measurement": "inhibition at 10 µM", "setting": "[2]; [7]", "value": "35 to 57", "unit": "%"}, {"measurement": "inhibition at 100 µM", "setting": "[2]; [8]", "value": "56 to 63", "unit": "%"}]}, {"molecule": "CCOCn1cc(F)c(=O)n(C(=O)c2cccc(C(=O)Oc3cc(OC(=O)c4ccc(OC(=O)c5ccccc5)nc4OC(=O)c4ccccc4)c(Cl)cn3)c2)c1=O", "note": "[Compound I-13, 3-{3-[4-(2,6-dibenzoyloxynicotinoyloxy)-5-chloro-2-pyridyloxycarbonyl]benzoyl}-1-ethoxymethyl-5-fluorouracil]", "values": [{"measurement": "RNA Fraction", "setting": "[2]; [3]", "value": 26.63, "unit": "pmol/1 × 10^7 cells"}, {"measurement": "RNA Fraction", "setting": "[2]; [4]", "value": 25.68, "unit": "pmol/1 × 10^7 cells"}, {"measurement": "inhibition at 10 µM", "setting": "[2]; [5]", "value": 58.1, "unit": "%"}, {"measurement": "inhibition at 100 µM", "setting": "[2]; [6]", "value": 59.4, "unit": "%"}, {"measurement": "inhibition at 10 µM", "setting": "[2]; [7]", "value": "35 to 57", "unit": "%"}, {"measurement": "inhibition at 100 µM", "setting": "[2]; [8]", "value": "56 to 63", "unit": "%"}]}]}
